From patent US11685719B2, “Pyridinone MK2 inhibitors and uses thereof” (Xinthera, Inc., priority 2021, dated 2023)

What was measured:
p38a/PRAK = p38a/PRAK (Homo sapiens (Human), UniProt Q16539); test: biochemical; conditions: 10-point 1:3 dilution, top dose 300 μM; 10 μM ATP, 2 h incubation; read-out: p38a/PRAK Enzyme pIC50 (converted)
Procedure, shortened: (§1)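 Recombinant N-terminal GST-tagged MK2 (F46-H400) or PRAK (M1-Q471), expressed in E. coli, were activated by p38. Activity read as phosphorylation of FITC-conjugated HSP27 peptide. IC50 taken as half-maximal inhibition of activation from 10-point 1:3 dilutions, top dose 1 or 10 μM for MK2 and 300 μM for PRAK.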

p38a/MK2 = p38a/MK2 (Homo sapiens (Human), UniProt P49137+Q16539); test: biochemical; conditions: 10-point 1:3 dilution, top dose 1 μM; 10 μM ATP, 2 h incubation; read-out: p38a/MK2 (1 μM) Enzyme pIC50 (converted)
Procedure, shortened: as §1

Sequence of p38a/PRAK (Q16539 whole entry): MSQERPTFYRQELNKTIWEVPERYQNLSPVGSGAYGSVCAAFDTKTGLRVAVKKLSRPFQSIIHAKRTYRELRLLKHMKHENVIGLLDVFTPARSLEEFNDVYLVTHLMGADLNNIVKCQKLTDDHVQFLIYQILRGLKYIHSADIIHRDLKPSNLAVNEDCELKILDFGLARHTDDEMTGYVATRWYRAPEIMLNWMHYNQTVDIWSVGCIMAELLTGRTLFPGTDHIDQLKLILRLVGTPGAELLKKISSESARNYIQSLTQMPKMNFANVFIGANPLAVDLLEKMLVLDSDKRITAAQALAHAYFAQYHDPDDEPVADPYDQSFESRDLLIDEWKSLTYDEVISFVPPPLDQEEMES
Sequence of p38a/MK2 (Q16539 whole entry): as above
Sequence of p38a/MK2 (P49137 46-400): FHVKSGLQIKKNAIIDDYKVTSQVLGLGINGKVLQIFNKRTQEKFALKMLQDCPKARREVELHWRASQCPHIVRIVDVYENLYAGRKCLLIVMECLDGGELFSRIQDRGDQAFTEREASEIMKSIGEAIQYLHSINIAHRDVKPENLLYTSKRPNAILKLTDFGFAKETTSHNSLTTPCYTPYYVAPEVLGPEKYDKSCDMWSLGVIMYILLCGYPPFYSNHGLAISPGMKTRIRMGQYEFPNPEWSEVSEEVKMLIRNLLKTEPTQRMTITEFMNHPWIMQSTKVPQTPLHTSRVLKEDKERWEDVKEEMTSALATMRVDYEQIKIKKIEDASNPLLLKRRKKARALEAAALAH

Cc1cnc(-n2ccn(C(C)(C)CO)c2=O)cc1-n1c(C)cc(OCc2ncc(F)cc2F)c(Cl)c1=O (single isomer, unassigned) [Example 27B, rel-3-chloro-4-[(3,5-difluoropyridin-2-yl)methoxy]-2′-[3-(1-hydroxy-2-methylpropan-2-yl)-2-oxoimidazol-1-yl]-5′,6-dimethyl-[1,4′-bipyridin]-2-one]
IC50 (p38a/PRAK): 794 nM
IC50 (p38a/MK2): 12.6 nM

[2H]C([2H])(Oc1cc(C)n(-c2cc(-n3ccnc(C(C)(C)O)c3=O)ncc2C)c(=O)c1Cl)c1ncc(C)cc1F (single isomer, unassigned) [Example 28A, rel-3-chloro-4-[(3-fluoro-5-methylpyridin-2-yl)(2H2)methoxy]-2′-[3-(2-hydroxypropan-2-yl)-2-oxopyrazin-1-yl]-5′,6-dimethyl-[1,4′-bipyridin]-2-one]
IC50 (p38a/PRAK): 3160 nM
IC50 (p38a/MK2): 1 nM

[2H]C([2H])(Oc1cc(C)n(-c2cc(-n3ccnc(C(C)(C)O)c3=O)ncc2C)c(=O)c1Cl)c1ncc(C)cc1F (single isomer, unassigned) [Example 28B, rel-3-chloro-4-[(3-fluoro-5-methylpyridin-2-yl)(2H2)methoxy]-2′-[3-(2-hydroxypropan-2-yl)-2-oxopyrazin-1-yl]-5′,6-dimethyl-[1,4′-bipyridin]-2-one]
IC50 (p38a/PRAK): > 316000 nM
IC50 (p38a/MK2): > 100 nM
